Calls of active or inactive are those of the source. The calls are words filed in the database; no cut-off is given here.

Assay [1] concerns L1210. Nature of the assay: Growth inhibition of mouse L1210 cells measured after 72 hrs by phosphatase assay. To be noted: L1210, 72 h. The class given is functional, cell-based.
The subject of assay [2] is HCT-116. Kind of assay: Growth inhibition of human HCT116 cells measured after 72 hrs by phosphatase assay. Particulars: HCT-116, 72 h. The assay is classed as functional, cell-based.
In assay [3] the test system is HCT-116/VM46. Nature of the assay: Growth inhibition of human HCT116/VM46 cells measured after 72 hrs by phosphatase assay. The class given is functional, cell-based. To be noted: HCT-116/VM46, 72 h.
The target of assay [4] is Tubulin (Sus scrofa) (UniProt P02554+P02550). Nature of the assay: Competitive displacement of BODIPY-VBL from porcine brain tubulin at 1.8 uM in presence of GTP by fluorescence method relative to control.
For assay [5], the species on record is Sus scrofa. Kind of assay: Inhibition of GMPCPP-induced porcine brain microtubule polymerization at 2 uM measured upto 30 mins by UV spectrophotometric method.
The species entered for assay [6] is Sus scrofa. Kind of assay: Effect on GMPCPP-induced porcine brain microtubule polymerization assessed as catalytic depolymerisation of microtubulin at 2 uM measured upto 30 mins by UV spectrophotometric method.
For assay [7], the species on record is Sus scrofa. Nature of the assay: Inhibition of GMPCPP-induced porcine brain microtubule polymerization at 2 uM under 4 degreeC measured upto 30 mins by UV spectrophotometric method.
For assay [8], the species on record is Bos taurus. Kind of assay: Inhibition of bovine microtubule polymerization at 143 pM and measured upto 5000 sec by tubulin polymerisation assay.
The species entered for assay [9] is Bos taurus. Nature of the assay: Inhibition of bovine microtubule polymerization at 143 nM and measured upto 5000 sec by tubulin polymerisation assay.
The species named for assay [10] is Sus scrofa. Kind of assay: Inhibition of paclitaxel-induced porcine brain microtubule polymerization at 2 uM measured upto 30 mins by UV spectrophotometric method.
The species named for assay [11] is Sus scrofa. Nature of the assay: Inhibition of paclitaxel-induced porcine brain microtubule polymerization at 2 uM under 4 degreeC measured upto 30 mins by UV spectrophotometric method.
Assay [12] has as its target T1, Tubulin (Homo sapiens) (UniProt P68371+Q9H4B7+P0DPH7+P68366+Q13509+Q71U36+P04350+Q3ZCM7+P07437+P68363+Q9BQE3+Q6PEY2+Q13885+Q9BVA1+Q9BUF5). Kind of assay: Induction of microtubule disposition in human HeLa cells assessed as appearance of multiple clumps of tubulin at 500 pM for 20 hrs measured by immunofluorescence method. The assay is classed as cell-based.
For assay [13], the species on record is Bos taurus. Nature of the assay: Inhibition of bovine microtubule polymerization at 143 uM and measured upto 5000 sec by tubulin polymerisation assay.
The target in assay [14] is T1, Tubulin (Homo sapiens). Nature of the assay: Inhibition of global microtubule skeleton in human HeLa cells assessed as catastrophic effect on global microtubule skeleton at 75 pM incubated for 20 hrs by Hoechst/[…] staining based confocal microscopy. The assay is classed as cell-based.
The subject of assay [15] is HeLa. Nature of the assay: Induction of mitotic arrest in human HeLa cells after 24 hrs by immunofluorescence based confocal microscopy relative to control. The assay is classed as functional, cell-based.
In assay [16] the test system is HeLa. Kind of assay: Potency index, ratio of vinblastine effect to compound effect for Induction of mitotic arrest in human HeLa cells after 24 hrs by immunofluorescence based confocal microscopy relative to control. The assay is classed as functional.
The target in assay [17] is T2, Tubulin alpha (Homo sapiens) (UniProt P0DPH7+P68366+Q71U36+P68363+Q9BQE3+Q6PEY2+A6NHL2+Q9NY65). Nature of the assay: Induction of microtubule disposition in human HeLa cells assessed as detection of alpha tubulin isoform at 500 nM for 20 hrs measured by immunofluorescence method. The class given is cell-based.
Assay [18] deals with Tubulin beta (Homo sapiens) (UniProt P68371+Q9H4B7+Q13509+P04350+Q3ZCM7+P07437+Q13885+Q9BVA1+Q9BUF5+A6NNZ2). Nature of the assay: Induction of microtubule disposition in human HeLa cells assessed as detection of beta tubulin isoform at 500 nM for 20 hrs measured by immunofluorescence method. The assay is classed as cell-based.
The subject of assay [19] is HeLa. Kind of assay: Induction of microtubule disposition in human HeLa cells assessed as detection of gamma tubulin isoform at 500 nM for 20 hrs measured by immunofluorescence method. The assay is classed as cell-based.
For assay [20], the target named is T1, Tubulin (Homo sapiens). Kind of assay: Induction of microtubule disposition in human HeLa cells assessed as appearance of clumps of tubulin without […] at 500 pM incubated for 20 hrs measured by immunofluorescence method. The assay is classed as cell-based.
Assay [21] addresses T1, Tubulin (Homo sapiens). Kind of assay: Inhibition of human GFP tagged tubulin expressed in human HeLa cells assessed as suppression of microtubule dynamics at 500 nM after 5 hrs by TIRF super resolution microscopy. The class given is cell-based.
For assay [22], the target named is T1, Tubulin (Homo sapiens). Nature of the assay: Inhibition of GFP tagged human tubulin expressed in human HeLa cells assessed as increase in the ratio of short versus medium and long microtubules after 5 hrs by TIRF super resolution microscopy. The assay is classed as cell-based.
Assay [23] has as its system HeLa. Kind of assay: Induction of mitotic arrest in human HeLa cells after 24 hrs by immunofluorescence based confocal microscopy relative to vinblastine. The class given is functional.
The subject of assay [24] is HeLa. Kind of assay: Growth inhibition of human HeLa cells measured after 72 hrs by phosphatase assay. The class given is functional, cell-based.
Assay [25] concerns the target T2, Tubulin alpha (Homo sapiens). Nature of the assay: Induction of microtubule disposition in human HeLa cells assessed as detection of alpha tubulin isoform at 10 nM for 20 hrs measured by immunofluorescence method. The class given is cell-based.
Assay [26] has as its system HeLa. Nature of the assay: Induction of microtubule disposition in human HeLa cells assessed as detection of gamma tubulin isoform at 10 nM for 20 hrs measured by immunofluorescence method. The assay is classed as cell-based.

The term IC50 denotes the concentration that inhibits the measured activity by half. Read a low IC50 as inhibition by little substance. In the case of `CC[C@]1(NC(=O)N2Cc3ccc(NC(=O)c4ccncn4)cc3C2)C[C@H]2CN(CCc3c([nH]c4ccccc34)[C@@](C(=O)OC)(c3cc4c(cc3OC)N(C)[C@H]3[C@@](O)(C(=O)OC)[C@H](OC(C)=O)[C@]5(CC)C=CCN6CC[C@]43[C@@H]65)C2)C1`, the values for the IC50 in assay [1], in [2] and in [3] were 0.062 nM, 0.074 nM and 0.88 nM, respectively. Moreover, the Activity in assay [4] was 104%. For the same compound, the inhibition entry in assay [5], in assay [8], in [9] and in assay [10] was “inactive” throughout. In assay [6], the result was inactive. The inhibition entry in assay [7] and in [11] was “Active” throughout.
For `CC[C@]1(NC(=O)N2Cc3ccc(NC(=O)c4cccnn4)cc3C2)C[C@H]2CN(CCc3c([nH]c4ccccc34)[C@@](C(=O)OC)(c3cc4c(cc3OC)N(C)[C@H]3[C@@](O)(C(=O)OC)[C@H](OC(C)=O)[C@]5(CC)C=CCN6CC[C@]43[C@@H]65)C2)C1`, the IC50 in assay [1] was 0.059 nM; in assay [2], 0.067 nM; in assay [3], 0.87 nM. Moreover, the Activity in assay [4] is 101%. For the same compound, the inhibition entry in [8] and in assay [9] was “inactive” throughout.
For `CC[C@]1(NC(=O)N2Cc3ccc(NC(=O)c4cnccn4)cc3C2)C[C@H]2CN(CCc3c([nH]c4ccccc34)[C@@](C(=O)OC)(c3cc4c(cc3OC)N(C)[C@H]3[C@@](O)(C(=O)OC)[C@H](OC(C)=O)[C@]5(CC)C=CCN6CC[C@]43[C@@H]65)C2)C1`, the outcome in assay [12], in assay [17], in [18] and in [20] was Active. Besides, the IC50 in assay [1] was 0.059 nM; in assay [2], 0.075 nM; in assay [3] it was 0.83 nM; in [24] it was 0.083 nM. Besides, the Activity in [4] was 105%; in assay [15] it was “Dose-dependent effect”. In addition, the inhibition result in assay [5], in [8], in assay [9], in [10] and in assay [14] was “inactive” throughout. The outcome in [6] and in assay [19] was inactive. Further, the inhibition entry in assay [7], in [11], in assay [13], in [21] and in [22] was “Active” in each case. Moreover, the Ratio in assay [16] amounted to 100. The “fold change (FC)” value in assay [23] came out at 100.
`CC[C@]1(O)C[C@@H]2CN(CCc3c([nH]c4ccccc34)[C@@](C(=O)OC)(c3cc4c(cc3OC)N(C)[C@H]3[C@@](O)(C(=O)OC)[C@H](OC(C)=O)[C@]5(CC)C=CCN6CC[C@]43[C@@H]65)C2)C1` [VINBLASTINE]: the figures for the Activity in assay [4] and in assay [15] were 31% and “Dose-dependent effect”, respectively. Also, in [13], the inhibition result is “Active”. The result in assay [25] was Active. Further, the result in assay [26] was inactive. In assay [24], this compound yielded an IC50 of 7.8 nM.
In the case of `CC[C@]1(NC(=O)N2Cc3ccccc3C2)C[C@H]2CN(CCc3c([nH]c4ccccc34)[C@@](C(=O)OC)(c3cc4c(cc3OC)N(C)[C@H]3[C@@](O)(C(=O)OC)[C@H](OC(C)=O)[C@]5(CC)C=CCN6CC[C@]43[C@@H]65)C2)C1`, the Activity in assay [4] was 49%.

For the origin of these results see ChEMBL document CHEMBL4390689 (Bioorg Med Chem Lett, 2019).
